Experimental data: patent publication US20220235030A1, “SELECTIVE HISTAMINE H3 ANTAGONIST ACID ADDITION SALTS AND PROCESS FOR THE PREPARATION THEREOF” (RICHTER GEDEON NYRT., priority 2019, published 2022)
Entries after “also recorded” stand apart in the source; their conditions may differ. Structures can show the parent of a compound that is named as a salt. Where two headings read alike, the source gives them in different places. Blank lines part the entries; values can stand above or below the molecule they belong to.

Tests used:
Assay type in all cases: physicochemical
[1] = Dynamic vapor sorption (DVS) analysis at 25° C., hygroscopicity and deliquescence; design: Δm/ΔRH: unit not given beside the values; details: for Critical Relative Humidity (CRH) / relative humidity above which high, continuous weight gain (deliquescence) is observed: DVS at 25° C.; for Critical Relative Humidity (CRH): RH1 of first sorption step with Δm/ΔRH≥0.5; for Δm/ΔRH / relative humidity above which high, continuous weight gain (deliquescence) is observed: sorption; for Δm/ΔRH / relative weight change: 25° C.; for relative weight change: 95% RH
Experimental: Determination of the critical relative humidity is feasible by gravimetric method, e.g. with DVS, where relative humidity is changed in suitably selected steps and a sufficiently long time is used to the onset of quasi-equilibrium.
The deliquescence tendency of each salt is characterized by the critical relative humidity (CRH) value (Table 1), which was determined based on the sorption curves measured according to the measurement parameter settings below, with DVS analysis at 25° C. isotherm conditions, according to the following. […]
If the given sorption step is Δm/ΔRH≥0.5, then RH1 is considered to be the critical relative humidity (CRH) value indicating the end point of the physical stability of the substance. The value thus determined is a good match with the onset of a significant monotonic weight gain observed visually on the sorption curve. Above the critical relative humidity value, it is the process of deliquescence of the substance that determines the weight gain observed on the sorption curve.

[2] = 10-day solid stress stability study, HPLC purity test; details: for chemical stability (in words): 10-day solid stress: heat, heat and humidity
Source text: Increased stability to ambient humidity is beneficial for longer-term physical and chemical stability of the active ingredient. The relationship between the reduced hygroscopic nature and the increased chemical stability associated with it is shown in the most preferred citrate salts in comparison to the dihydrochloride salt.

[3] = Solubility in simulated gastric fluid; details: simulated gastric fluid (SGF without pepsin, pH=1.3)
Source text: The generally observed hygroscopic nature of the 1-[4-(4-{3-[(2R)-2-methyl-pyrrolidin-1-yl]-propoxy}-phenoxy)-piperidin-1-yl]-ethanone salts is inter alia related to the good solubility thereof.

[4] = listed as monohydrochloride Form A
[5] = listed as monohydrochloride Form B

SMILES: CC(=O)N1CCC(Oc2ccc(OCCCN3CCC[C@H]3C)cc2)CC1 [diHBr, 1-[4-(4-{3-[(2R)-2-methyl-pyrrolidin-1-yl]-propoxy}-phenoxy)-piperidin-1-yl]-ethanone dihydrobromide salt]
Critical Relative Humidity (CRH) ([1]; dihydrobromide salt): 70%
Δm/ΔRH ([1]; RH1 0%, dihydrobromide salt): 0.0
Δm/ΔRH ([1]; RH1 10%, dihydrobromide salt): 0.0
Δm/ΔRH ([1]; RH1 20%, dihydrobromide salt): 0.0
Δm/ΔRH ([1]; RH1 30%, dihydrobromide salt): 0.0
Δm/ΔRH ([1]; RH1 40%, dihydrobromide salt): 0.1
Δm/ΔRH ([1]; RH1 50%, dihydrobromide salt): 0.1
Δm/ΔRH ([1]; RH1 60%, dihydrobromide salt): 0.3
Δm/ΔRH ([1]; RH1 70%, dihydrobromide salt): 3.1
Δm/ΔRH ([1]; RH1 80%, dihydrobromide salt): 3.3
relative weight change ([1]; sorption curve, dihydrobromide salt): 90%
moisture absorbed ([1]; sorption curve, up to 70% RH): about 6%

SMILES: CC(=O)N1CCC(Oc2ccc(OCCCN3CCC[C@H]3C)cc2)CC1 [dicitrate, 1-[4-(4-{3-[(2R)-2-methyl-pyrrolidin-1-yl]-propoxy}-phenoxy)-piperidin-1-yl]-ethanone dicitrate salt]
chemical stability (in words) ([2]; dicitrate salt): stable
All contaminant (area %) ([2]; 10 days, 40° C., 75% RH, open glass, dicitrate salt): 0.24% area %
All contaminant (area %) ([2]; 10 days, 50° C., 75% RH, open glass, dicitrate salt): 0.25% area %
All contaminant (area %) ([2]; 10 days, 50° C., sealed glass, dicitrate salt): 0.23% area %
All contaminant (area %) ([2]; 10 days, 75° C., sealed glass, dicitrate salt): 0.24% area %
All contaminant (area %) ([2]; starting sample, dicitrate salt): 0.23% area %
Critical Relative Humidity (CRH) ([1]; dicitrate salt): not deliquescent
Δm/ΔRH ([1]; RH1 0%, dicitrate salt): 0.0
Δm/ΔRH ([1]; RH1 10%, dicitrate salt): 0.0
Δm/ΔRH ([1]; RH1 20%, dicitrate salt): 0.0
Δm/ΔRH ([1]; RH1 30%, dicitrate salt): 0.0
Δm/ΔRH ([1]; RH1 40%, dicitrate salt): 0.0
Δm/ΔRH ([1]; RH1 50%, dicitrate salt): 0.0
Δm/ΔRH ([1]; RH1 60%, dicitrate salt): 0.0
Δm/ΔRH ([1]; RH1 70%, dicitrate salt): 0.0
Δm/ΔRH ([1]; RH1 80%, dicitrate salt): 0.1
deliquescence (in words) ([1]; above 90% RH, DVS 25° C., dicitrate salt): does not show deliquescence
hygroscopicity (in words) ([1]; dicitrate salt): poorly hygroscopic
water bound ([1]; sorption curve, up to 80% RH, dicitrate salt): 3.2%
water bound ([1]; sorption curve, up to 90% RH): 6.8%
deliquescence (in words) ([1]; under the conditions of the DVS analysis, dicitrate salt): do not show deliquescence; also recorded: not deliquescent
solubility ([3]; dicitrate salt): 469 mM

SMILES: CC(=O)N1CCC(Oc2ccc(OCCCN3CCC[C@H]3C)cc2)CC1 [monoHCl Form A, 1-[4-(4-{3-[(2R)-2-methyl-pyrrolidin-1-yl]-propoxy}-phenoxy)-piperidin-1-yl]-ethanone monohydrochloride salt Form A]
Critical Relative Humidity (CRH) [1]: 40%
Δm/ΔRH ([1]; RH1 0%): 0.0
Δm/ΔRH ([1]; RH1 10%): 0.0
Δm/ΔRH ([1]; RH1 20%): 0.0
Δm/ΔRH ([1]; RH1 30%): 0.3
Δm/ΔRH ([1]; RH1 40%): 1.1
Δm/ΔRH ([1]; RH1 50%): 0.5
Δm/ΔRH ([1]; RH1 60%): 0.6
Δm/ΔRH ([1]; RH1 70%): 1.1
Δm/ΔRH ([1]; RH1 80%): 2.6
hygroscopicity (in words) [1, 4]: highly hygroscopic
relative weight change ([1]; sorption curve): 97%
water bound ([1]; sorption curve, up to 40% RH): about 3%
relative humidity above which high, continuous weight gain (deliquescence) is observed [1, 4]: above 40%

SMILES: CC(=O)N1CCC(Oc2ccc(OCCCN3CCC[C@H]3C)cc2)CC1 [monoHCl Form B, 1-[4-(4-{3-[(2R)-2-methyl-pyrrolidin-1-yl]-propoxy}-phenoxy)-piperidin-1-yl]-ethanone monohydrochloride salt Form B]
Critical Relative Humidity (CRH) [1]: 30%
Δm/ΔRH ([1]; RH1 0%): 0.0
Δm/ΔRH ([1]; RH1 10%): 0.0
Δm/ΔRH ([1]; RH1 20%): 0.0
Δm/ΔRH ([1]; RH1 30%): 0.6
Δm/ΔRH ([1]; RH1 40%): 0.7
Δm/ΔRH ([1]; RH1 50%): 0.4
Δm/ΔRH ([1]; RH1 60%): 0.6
Δm/ΔRH ([1]; RH1 70%): 0.9
Δm/ΔRH ([1]; RH1 80%): 1.5
hygroscopicity (in words) [1, 5]: highly hygroscopic
relative weight change ([1]; sorption curve): 61%
water bound ([1]; sorption curve, up to 30% RH): 0.3%
relative humidity above which high, continuous weight gain (deliquescence) is observed [1, 5]: above 30%

SMILES: CC(=O)N1CCC(Oc2ccc(OCCCN3CCC[C@H]3C)cc2)CC1 [monocitrate, 1-[4-(4-{3-[(2R)-2-methyl-pyrrolidin-1-yl]-propoxy}-phenoxy)-piperidin-1-yl]-ethanone monocitrate salt Form A]
chemical stability (in words) [2]: stable
All contaminant (area %) ([2]; 10 days, 40° C., 75% RH, open glass): 0.19% area %
All contaminant (area %) ([2]; 10 days, 50° C., 75% RH, open glass): 0.19% area %
All contaminant (area %) ([2]; 10 days, 50° C., sealed glass): 0.20% area %
All contaminant (area %) ([2]; 10 days, 75° C., sealed glass): 0.19% area %
All contaminant (area %) ([2]; starting sample): 0.19% area %
hygroscopicity (in words) [1]: poorly hygroscopic
Critical Relative Humidity (CRH) [1]: not deliquescent
Δm/ΔRH ([1]; RH1 0%): 0.0
Δm/ΔRH ([1]; RH1 10%): 0.0
Δm/ΔRH ([1]; RH1 20%): 0.2
Δm/ΔRH ([1]; RH1 30%): 0.1
Δm/ΔRH ([1]; RH1 40%): 0.0
Δm/ΔRH ([1]; RH1 50%): 0.0
Δm/ΔRH ([1]; RH1 60%): 0.0
Δm/ΔRH ([1]; RH1 70%): 0.0
Δm/ΔRH ([1]; RH1 80%): 0.0
deliquescence (in words) ([1]; above 90% RH, DVS 25° C.): did not show deliquescence
relative humidity at which monohydrate Form A converts to anhydrate Form B ([1]; during desorption): below 10 % RH
deliquescence (in words) ([1]; under the conditions of the DVS analysis): not deliquescent
deliquescence (in words) ([1]; under the conditions of the DVS analysis, listed as Monocitrate): do not show deliquescence
solubility [3]: greater than 44 mM

Next, values leading:

Critical Relative Humidity (CRH) ([1]; oxalate salt): not deliquescent
Δm/ΔRH ([1]; RH1 0%, oxalate salt): 0.0
Δm/ΔRH ([1]; RH1 10%, oxalate salt): 0.1
Δm/ΔRH ([1]; RH1 20%, oxalate salt): 0.1
Δm/ΔRH ([1]; RH1 30%, oxalate salt): 0.2
Δm/ΔRH ([1]; RH1 40%, oxalate salt): 0.1
Δm/ΔRH ([1]; RH1 50%, oxalate salt): 0.0
Δm/ΔRH ([1]; RH1 60%, oxalate salt): 0.0
Δm/ΔRH ([1]; RH1 70%, oxalate salt): 0.0
Δm/ΔRH ([1]; RH1 80%, oxalate salt): 0.1
deliquescence (in words) ([1]; above 90% RH, DVS 25° C., oxalate salt): does not even show deliquescence
relative weight gain relative to the dried weight ([1]; sorption curve, 10-50% RH range, constant up to approx. 70% RH): about 4.7%
deliquescence (in words) ([1]; under the conditions of the DVS analysis, oxalate salt): not deliquescent
SMILES: CC(=O)N1CCC(Oc2ccc(OCCCN3CCC[C@H]3C)cc2)CC1 [oxalate, 1-[4-(4-{3-[(2R)-2-methyl-pyrrolidin-1-yl]-propoxy}-phenoxy)-piperidin-1-yl]-ethanone oxalate salt]

Critical Relative Humidity (CRH) ([1]; sulfate salt): 80%
Δm/ΔRH ([1]; RH1 0%, sulfate salt): 0.4
Δm/ΔRH ([1]; RH1 10%, sulfate salt): 0.0
Δm/ΔRH ([1]; RH1 20%, sulfate salt): 0.0
Δm/ΔRH ([1]; RH1 30%, sulfate salt): 0.0
Δm/ΔRH ([1]; RH1 40%, sulfate salt): 0.0
Δm/ΔRH ([1]; RH1 50%, sulfate salt): 0.0
Δm/ΔRH ([1]; RH1 60%, sulfate salt): 0.0
Δm/ΔRH ([1]; RH1 70%, sulfate salt): 0.1
Δm/ΔRH ([1]; RH1 80%, sulfate salt): 1.6
relative weight change ([1]; sorption curve, sulfate salt): 53%
water bound ([1]; sorption curve, up to 80% RH, sulfate salt): about 5%
SMILES: CC(=O)N1CCC(Oc2ccc(OCCCN3CCC[C@H]3C)cc2)CC1 [sulfate, 1-[4-(4-{3-[(2R)-2-methyl-pyrrolidin-1-yl]-propoxy}-phenoxy)-piperidin-1-yl]-ethanone sulfate salt]
